Assay results from patent US6838574B1, “Dicarba-closo-dodecarborane derivatives” (Institute of Medicinal Molecular Design, Inc., priority 1999, dated 2005).

Legend:
Assay type in all cases: cell-based
[1] = target: T1, rat estrogen receptor (pCI-rER α) (Rattus norvegicus, UniProt P06211); experiment: Estrogenic activity, estrogen receptor-dependent luciferase reporter gene assay in COS-1 cells; settings: for EC50: 50% of luciferase activity of β-estradiol at 10 nM (=100), COS-1; for Relative Activity (%) at the Same Amount of β-estradiol: β-estradiol = 100
T1 construct: expressed in transfected cells; host or cells: COS-1 cells
T1 sequence (P06211 1-600): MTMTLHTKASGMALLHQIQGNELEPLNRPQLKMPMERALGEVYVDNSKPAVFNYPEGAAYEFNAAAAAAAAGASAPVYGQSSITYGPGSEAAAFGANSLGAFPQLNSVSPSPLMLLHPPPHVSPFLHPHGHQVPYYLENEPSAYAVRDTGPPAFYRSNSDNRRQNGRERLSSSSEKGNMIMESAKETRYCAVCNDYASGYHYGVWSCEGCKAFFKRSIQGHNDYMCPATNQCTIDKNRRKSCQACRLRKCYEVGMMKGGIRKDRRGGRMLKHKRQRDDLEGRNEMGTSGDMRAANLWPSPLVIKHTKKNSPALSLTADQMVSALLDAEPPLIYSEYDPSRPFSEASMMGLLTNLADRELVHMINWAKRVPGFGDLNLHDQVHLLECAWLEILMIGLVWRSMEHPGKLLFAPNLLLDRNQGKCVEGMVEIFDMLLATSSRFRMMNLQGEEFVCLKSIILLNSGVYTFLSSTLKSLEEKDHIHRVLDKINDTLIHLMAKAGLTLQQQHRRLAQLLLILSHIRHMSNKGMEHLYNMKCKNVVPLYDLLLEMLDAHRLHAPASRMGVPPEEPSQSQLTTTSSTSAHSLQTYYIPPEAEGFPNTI
Protocol: As estrogenic activity, estrogen receptor-dependent transcriptional activation abilities of the test compounds were determined by the r porter gene assay using luciferase gene. COS-1 cells were cultured using a DMEM medium containing an antibiotics and 5% bovine fetal serum in the wells of 24 well plates (cell density: 5 to 6×10^4/well) at 37° C. for one night under 5% carbon dioxide. On the next day, the medium was changed to DMEM medium not containing Phenol Red. Using gene introducing reagent Tfx-20 (Promega), reporter plasmid EREx3-pGL-TK, in which rat estrogen receptor expression plasmid pCI-rER α and an estrogen responsive sequence were placed upstream of the luciferase gene, and β-galactosidase expression plasmid pCMV β used as an internal standard were introduced into cells. The cells were cultured for 2 h, and the medium was changed to DMEM not containing Phenol Red but containing active charcoal-treated serum.
The culture was added with each test compound dissolved in ethanol at various concentrations (final ethanol concentration at 0.5%) and then cultivation was continued at 37° C. for one night under 5% carbon dioxide. On the next day, the cells were lysed and enzymatic activity of luciferase expressed was measured by using a chemiluminometer. The values were standardized based on galactocidase enzymatic activity, and then compared with the values obtained by experiments using no test compound and used as values of activity at various concentrations. […] The estrogenic activities in the table are shown as concentrations for 50% activity (EC50 values) which give 50% activities relative to luciferase activity regarded as 100 that is expressed by treatment with the control compound β-estradiol at 10 nM. Each compound tested in this experiment has a high estrogenic activity.
Estrogenic activities, i.e., estrogen receptor-dependent transcriptional abilities of test compounds, were determined by the reporter gene assay using the luciferase gene in the same manner as those described above. In this experiment (Table 6), estrogenic activities at 0.1 nM, 1 nM, and 10 nM of the test compounds are shown as relative values in view of the luciferase activity regarded as 100 which is expressed at the same amounts of β-estradiol as a control, and intensities of activities were compared. Each compound tested in this experiment has high estrogenic activity.

[2] = tested on: human promyelocytic leukemia cell strain HL-60; experiment: HL-60 differentiation with coexisting differentiation inducer Am80 (anti-differentiation activity); settings: coexisting Am80 1×10^−9 M (Table 4)
[3] = tested on: human promyelocytic leukemia cell strain HL-60; experiment: HL-60 differentiation induction, test compound alone; settings: for differentiation inducing activity at low concentration (in words): 0.01 μM test compound; for differentiation inducing activity at low concentration (in words) / differentiation inducing activity (in words): HL-60; for percentage of differentiated cells, no coexisting compound: HL-60, 4 days, control <10; for differentiation inducing activity (in words): test compound alone
Protocol: Inhibitory activity against proliferation of human promyelocytic leukemia cell strain HL-60 was evaluated an index of anti-leukemia activity. Subcultured HL-60 cells were seeded with the initial cell number of 8×10^4 cells/ml in the RPMI 1640 medium containing bovine fetal serum and an antibiotics. Each test compound was added at various concentrations and the mixture was cultured at 37° C. Four days later, cell number was counted. Anti-leukemia activity of each test compound was shown in the tables as percentage values of differentiated cells, which cells were not differentiated in the absence of the test drug, […] observation and NBT reducing ability of the cells as indexes.

[4] = relative activity experiment (Table 6)
[5] = test compound 1 μM, morphology and NBT reducing ability

Substance	EC50 [1] [nM]	Relative Activity (%) at the Same Amount of β-estradiol ([1]; 1 nM) [%]	Relative Activity (%) at the Same Amount of β-estradiol ([1]; 10 nM) [%]	other results
1,12-bis(4-hydroxyphenyl)-1,12-dicarba-closo-dodecaborane [BE160]	1	–	–	–
1-(2-hydroxyethyl)-7-(4-hydroxyphenyl)-1,7-dicarba-closo-dodecaborane [BE222]	–	38	85	–
1-(2-hydroxyethyl)-12-(4-(hydroxyphenyl)-1,12-dicarba-closo-dodecaborane [BE122]	–	98	104	Relative Activity (%) at the Same Amount of β-estradiol ([1]; 0.1 nM): 83%
1-(3-hydroxypropyl)-12-(4-hydroxyphenyl)-1,12-dicarba-closo-dodecaborane [BE123]	–	56	79	Relative Activity (%) at the Same Amount of β-estradiol ([1]; 0.1 nM): 29%
1-(4-hydroxyphenyl)-1,7-dicarba-closo-dodecaborane [BE200]	2	45	72	–
1-(4-hydroxyphenyl)-1,12-dicarba-closo-dodecaborane [BE100]	0.7	63	82	Relative Activity (%) at the Same Amount of β-estradiol ([1]; 0.1 nM): 51%; estrogenic activity compared with β-estradiol (in words) ([1]; EC50 experiment (Table 5)): much higher activity than that of β-estradiol
1-amino-12-(4-hydroxyphenyl)-1,12-dicarba-closo-dodecaborane [BE140]	0.5	–	–	estrogenic activity compared with β-estradiol (in words) ([1]; EC50 experiment (Table 5)): much higher activity than that of β-estradiol
1-hydrocarbonyl-12-(4-hydroxyphenyl)-12-dicarba-closo-dodecaborane [BE130]	10	–	–	–
1-hydroxy-7-(4-hydroxyphenyl)-1,7-dicarba-closo-dodecaborane [BE219]	–	40	71	–
1-hydroxy-12-(4-hydroxyphenyl)-1,12-dicarba-closo-dodecaborane [BE119]	–	132	120	Relative Activity (%) at the Same Amount of β-estradiol ([1]; 0.1 nM): 133%; estrogenic activity compared with β-estradiol (in words) [1, 4]: much higher activities than that of β-estradiol
1-hydroxyethyl-12-(4-hydroxyphenyl)-1,12-dicarba-closo-dodecaborane [BE121]	1	–	–	estrogenic activity compared with β-estradiol (in words) ([1]; EC50 experiment (Table 5)): much higher activity than that of β-estradiol
1-hydroxymethyl-12-(4-hydroxyphenyl)-1,12-dicarba-closo-dodecaborane [BE120]	0.05	163	126	Relative Activity (%) at the Same Amount of β-estradiol ([1]; 0.1 nM): 212%; estrogenic activity compared with β-estradiol (in words) ([1]; EC50 experiment (Table 5)): much higher activity than that of β-estradiol; estrogenic activity compared with β-estradiol (in words) [1, 4]: much higher activities than that of β-estradiol
1-methoxycarbonyl-12-(4-hydroxyphenyl)-1,12-dicarba-closo-dodecaborane [BE110]	2	–	–	–
4-(2,3,4,5,6,7,8,9,10,11-decamethyl-1,12-dicarba-closo-dodecaborane-1-carbonylamino) benzoic acid [BR630]	–	–	–	anti-differentiation activity (in words) [2]: remarkable anti-differentiation activities
4-(2,3,4,5,6,7,8,9,10,11-decamethyl-1,12-dicarba-closo-dodecaborane-1-carbonylamino) benzoic acid [BR635]	–	–	–	anti-differentiation activity (in words) [2]: remarkable anti-differentiation activities
4-[3-(2-propyl-1,2-dicarba-closo-dodecaboran-1-yl)phenylamino]benzoic acid [BR453]	–	–	–	differentiation inducing activity at low concentration (in words) [3]: activities were maintained; percentage of differentiated cells, no coexisting compound ([3]; test compound 0.01 μM): 80%; percentage of differentiated cells, no coexisting compound [3, 5]: 80%; differentiation inducing activity (in words) [3]: strong differentiation inducing activities
4-[4-(2-propyl-1,2-dicarba-closo-dodecaboran-1-yl)phenylamino]benzoic acid [BR403]	–	–	–	differentiation inducing activity at low concentration (in words) [3]: activities were maintained; percentage of differentiated cells, no coexisting compound ([3]; test compound 0.01 μM): 84%; percentage of differentiated cells, no coexisting compound [3, 5]: 82%; differentiation inducing activity (in words) [3]: strong differentiation inducing activities

Further lines, with some results ahead:

EC50 [1] [nM]	Relative Activity (%) at the Same Amount of β-estradiol ([1]; 1 nM) [%]	Relative Activity (%) at the Same Amount of β-estradiol ([1]; 10 nM) [%]	Substance	other results
1	–	–	1,7-bis(4-hydroxyphenyl)-1,7-dicarba-closo-dodecaborane [BE260]	–
–	11	24	1-(2-hydroxyethyl)-7-(3-hydroxyphenyl)-1,7-dicarba-closo-dodecaborane [BE422]	–
–	43	85	1-(2-hydroxyethyl)-12-(3-hydroxyphenyl)-1,12-dicarba-closo-dodecaborane [BE322]	–
–	18	59	1-(2-hydroxymethyl)-7-(3-hydroxyphenyl)-1,7-dicarba-closo-dodecaborane [BE420]	–
–	127	127	1-(2-hydroxymethyl)-12-(3-hydroxyphenyl)-1,12-dicarba-closo-dodecaborane [BE320]	Relative Activity (%) at the Same Amount of β-estradiol ([1]; 0.1 nM): 116%; estrogenic activity compared with β-estradiol (in words) [1, 4]: much higher activities than that of β-estradiol
–	11	38	1-(3-hydroxyphenyl)-1,7-dicarba-closo-dodecaborane [BE400]	–
–	20	59	1-(3-hydroxyphenyl)-1,12-dicarba-closo-dodecaborane [BE300]	–
–	<10	15	1-(3-hydroxypropyl)-7-(3-hydroxyphenyl)-1,7-dicarba-closo-dodecaborane [BE423]	–
–	20	51	1-(3-hydroxypropyl)-7-(4-hydroxyphenyl)-1,7-dicarba-closo-dodecaborane [BE223]	–
–	12	31	1-(3-hydroxypropyl)-12-(3-hydroxyphenyl)-1,12-dicarba-closo-dodecaborane [BE323]	–
–	14	38	1-hydroxy-7-(3-hydroxyphenyl)-1,7-dicarba-closo-dodecaborane [BE419]	–
–	53	72	1-hydroxy-12-(3-hydroxy phenyl)-1,12-dicarba-closo-dodecaborane [BE319]	–
